Test results from patent publication US5788964A, “Method for sensitization of cancer cells for killer cell mediated lysis” (Orion-Yhtyma Oy, priority 1996, dated 1998).

What was measured:
[1] = tested on: P815 tumor cells; experiment: Winn assay, pretreated P815 cells mixed with LAK cells 1:25 (Example 2); type: in vivo, DBA/2 mice; conditions: target:effector 1:25, s.c., groups of 4
Procedure: (§1) For the generation of LAK cells, 2×10^6 /ml of spleen cells from female DBA/N2 mice were cultured for 5 days in RPMI-1640 medium supplemented with 10%FCS, 5×10^-5 M 2-mercaptoethanol and 500 U/mI of human recombinant interleukin-2 at 370C in humidified air containing 5% CO2.

[2] = tested on: P815 tumor; experiment: P815 tumor growth, drug in drinking water with or without LAK (Example 3); type: in vivo, mice; conditions: drinking water TX 100 μg/ml, TO 400 μg/ml; LAK 1:25 then weekly for 3 weeks
[3] = tested on: P815 mastocytoma; experiment: Immunotherapy of P815 mastocytoma, drug by gavage and LAK cells (Example 6); type: in vivo, DBA/2 mice; conditions: 10 mg/kg/day by gavage, with or without LAK as labelled
Procedure: DBA/2 female mice were injected s. c. with 10^4 P815 tumor cells. […] Two days later 25×10^4 LAK cells were given i.p., LAK was injected three times more, four days apart. Drug treatment was maintained from day 14 until day 30.

[4] = tested on: Yac1 murine lymphoma; experiment: NK cell mediated cytotoxicity (51Cr release); conditions: for target cell lysis, effector cells pretreated (in words): NK effectors pretreated; for lysis of treated targets by treated effectors (in words) / target cell lysis, target cells treated (in words): NK effectors; for lysis of treated targets by treated effectors (in words): both treated; for target cell lysis, target cells treated (in words): target cells treated for 4 h prior to the cytotoxic reaction
Procedure: (§2) Target cells were labeled with ^51 Cr for 1 hr, then washed. The specific ^51 Cr release was determined after 4 hours of incubation at 37° C., 5% CO2 (target/effector 1:25).
Target cells: Yac1 murine lymphoma
Effector cells: Spleen lymphocytes of female Fishner rats

[5] = tested on: P815 (NK resistant murine mastocytoma); experiment: LAK cell mediated cytotoxicity (51Cr release), rat LAK; conditions: for target cell lysis, effector cells pretreated (in words): LAK effectors pretreated; for lysis of treated targets by treated effectors (in words) / target cell lysis, target cells treated (in words): LAK effectors; for lysis of treated targets by treated effectors (in words): both treated; for target cell lysis, target cells treated (in words): target cells treated for 4 h prior to the cytotoxic reaction
Procedure: Rat spleen cells were used as effector cells either without activation (NK cells), or after treatment with human IL-2 (LAK), or after stimulation with the Nb2 rat lymphoma in mixed cultures (CTL). The Yac-1 murine lymphoma was used as a target for NK cells, the P815 mastocytoma for LAK cells and Nb2 cells for CTL. […] Target cells were labeled with ^51 Cr for 1 hr, then washed. The specific ^51 Cr release was determined after 4 hours of incubation at 37° C., 5% CO2 (target/effector 1:25).
Target cells: P815 (NKresistant murine mastocytoma)
Effectar cells: Spleen cells of Fischer rats were cultured in medium
supplemented with 500 U/ml riL2 for 6 days at 37° C. and 5%

[6] = tested on: P815 cells; experiment: 51Cr assay, killing of P815 cells by LAK cells from DBA/N2 mice (Example 2); conditions: Mus musculus, P815, 4 h, read-out: P815 cells killed by LAK cells
Procedure: as §1

[7] = tested on: Nb2 rat lymphoma; experiment: Target cell destruction by cytolytic lymphocytes (CTL) generated in mixed cultures (51Cr release); conditions: for target cell lysis, effector cells pretreated (in words): CTL effectors pretreated; for lysis of treated targets by treated effectors (in words) / target cell lysis, target cells treated (in words): CTL effectors; for lysis of treated targets by treated effectors (in words): both treated; for target cell lysis, target cells treated (in words): target cells treated for 4 h prior to the cytotoxic reaction
Procedure: as §2
Target cells: Nb2 rat lymphoma
Effector cells: Cytotoxic Tlymphocytes (CTL) generated in mixed cultures,
Responder: Spleen cells of Fischer rats. Stimulator: Nb2 cells (thymic

[8] = tested on: tumor estrogen receptors; conditions: background statement; cited from earlier work

Compound	animals protected / survival [1]	tumor free animals [2]	partial regression [3]	target cell lysis, effector cells pretreated (in words) [4]	lysis of treated targets by treated effectors (in words) [4]	target cell lysis, target cells treated (in words) [4]	target cell lysis, effector cells pretreated (in words) [5]	lysis of treated targets by treated effectors (in words) [5]	target cell lysis, target cells treated (in words) [5]	cytotoxicity at 5 µM [6] [%]	target cell lysis, effector cells pretreated (in words) [7]	lysis of treated targets by treated effectors (in words) [7]	target cell lysis, target cells treated (in words) [7]	inhibition of estrogen-induced growth [8]	cytotoxicity at 1 µM [6] [%]
CN(C)CCOc1ccc(/C(=C(/CCCl)c2ccccc2)c2ccccc2)cc1 [TO, toremifene]	1 of 4	one	one	no such enhancing effect	lysed treated targets as efficiently as did nontreated effectors	enhanced target cell lysis in a dose dependent fashion	no such enhancing effect	lysed treated targets as efficiently as did nontreated effectors	enhanced target cell lysis in a dose dependent fashion	51	no such enhancing effect	lysed treated targets as efficiently as did nontreated effectors	enhanced target cell lysis in a dose dependent fashion	–	–
CC/C(=C(\c1ccccc1)c1ccc(OCCN(C)C)cc1)c1ccccc1 [TX, tamoxifen]	killed all the animals	–	one	no such enhancing effect	lysed treated targets as efficiently as did nontreated effectors	enhanced target cell lysis in a dose dependent fashion	no such enhancing effect	lysed treated targets as efficiently as did nontreated effectors	enhanced target cell lysis in a dose dependent fashion	–	no such enhancing effect	lysed treated targets as efficiently as did nontreated effectors	enhanced target cell lysis in a dose dependent fashion	inhibit estrogen-induced growth by competitive antagonism of tumor estrogen receptors	52
